Laboratory results as given in ChEMBL document CHEMBL1150045, “Callyspongenols A-C, new cytotoxic C22-polyacetylenic alcohols from a red sea sponge, Callyspongia species” (J Nat Prod, 2003).
Converted amounts (≈) assume the structure as drawn.

These compounds were tested on P388 (assay: Cytotoxicity against mouse P388 cells).
Assay type: functional, cell-based

| Structure (SMILES) | IC50 [µg/mL] |
| --- | --- |
| C#C/C=C\CCCCC#CCCCCC#CCCCC#CCO | 2.2 (≈ 7.13 µM) |
| C#C/C=C\CCCCCCC#CC#CCCC/C=C\C#CCO [CALLYSPONGENOL B] | 10 (≈ 32.6 µM) |
| C#C/C=C\CCCC/C=C\C#CC#CCCC/C=C\C#CCO [CALLYSPONGENOL C] | 2.2 (≈ 7.23 µM) |
| C#C/C=C\CCCCC#CC#CC#CCCC/C=C\C#CCO [DEHYDROISOPHONOCHALYNOL] | 2.2 (≈ 7.27 µM) |
| COc1cccc2c1C(=O)c1c(O)c3c(c(O)c1C2=O)C[C@@](O)(C(=O)CO)C[C@@H]3O[C@H]1C[C@H](N)[C@H](O)[C@H](C)O1 [DOXORUBICIN] | 0.04 (≈ 0.0736 µM) |

These compounds were tested on HeLa (assay: Cytotoxicity against human HeLa cells).
Assay type: functional, cell-based

| Structure (SMILES) | IC50 [µg/mL] |
| --- | --- |
| C#C/C=C\CCCCC#CCCCCC#CCCCC#CCO | 4.5 (≈ 14.6 µM) |
| C#C/C=C\CCCCCCC#CC#CCCC/C=C\C#CCO [CALLYSPONGENOL B] | 10 (≈ 32.6 µM) |
| C#C/C=C\CCCC/C=C\C#CC#CCCC/C=C\C#CCO [CALLYSPONGENOL C] | 3.9 (≈ 12.8 µM) |
| C#C/C=C\CCCCC#CC#CC#CCCC/C=C\C#CCO [DEHYDROISOPHONOCHALYNOL] | 5.1 (≈ 16.9 µM) |
| COc1cccc2c1C(=O)c1c(O)c3c(c(O)c1C2=O)C[C@@](O)(C(=O)CO)C[C@@H]3O[C@H]1C[C@H](N)[C@H](O)[C@H](C)O1 [DOXORUBICIN] | 0.066 (≈ 0.121 µM) |
